Data set [1] can be described thus: Binding affinity to ergosterol-containing palmitoyloleoylphosphatidylcholine membrane at 0.84 uM by UV spectra analysis. In kind it is physicochemical.
The nature of data set [2]: Ratio of amphotericin B EC50 to compound EC50 for human erythrocytes. The data set is classed as ADME, cell-based, Erythrocyte. The note with it: read-out: Ratio EC50.
The subject of data set [3] is Aspergillus niger. As to the kind of experiment: Antifungal activity against Aspergillus niger assessed as minimum compound concentration per disc required for inhibition zone formation after 50 hrs by disc diffusion assay. The data set is classed as functional.
The nature of data set [4]: Hemolytic activity against human erythrocytes after 18 hrs by spectrophotometry. The data set is classed as ADME, cell-based. The note with it: Erythrocyte.
The nature of data set [5]: Binding affinity to ergosterol-containing palmitoyloleoylphosphatidylcholine membrane at 1.67 uM by UV spectra analysis. In kind it is physicochemical.
A short description of data set [6]: Binding affinity to ergosterol-containing palmitoyloleoylphosphatidylcholine membrane by UV spectra analysis. In kind it is physicochemical.

SMILES strings stand for the structures.

`COC(=O)[C@H]1[C@@H]2C[C@@H](O[C@@H]3O[C@H](C)[C@@H](O)[C@H](NCCCNC(=O)CNC(=O)[C@H]4[C@@H]5C[C@@H](O[C@@H]6O[C@H](C)[C@@H](O)[C@H](N)[C@@H]6O)/C=C/C=C/C=C/C=C/C=C/C=C/C=C/[C@H](C)[C@@H](O)[C@@H](C)[C@H](C)OC(=O)C[C@H](O)C[C@H](O)CC[C@@H](O)[C@H](O)C[C@H](O)C[C@](O)(C[C@@H]4O)O5)[C@@H]3O)/C=C/C=C/C=C/C=C/C=C/C=C/C=C/[C@H](C)[C@@H](O)[C@@H](C)[C@H](C)OC(=O)C[C@H](O)C[C@H](O)CC[C@@H](O)[C@H](O)C[C@H](O)C[C@](O)(C[C@@H]1O)O2`: the outcome in data set [1] was Active.
As for `C[C@@H]1[C@H](O)[C@@H](C)/C=C/C=C/C=C/C=C/C=C/C=C/C=C/[C@H](O[C@@H]2O[C@H](C)[C@@H](O)[C@H](NCCCNC(=O)CNC(=O)[C@@H]3[C@@H](O)[C@H](F)[C@@]4(O)C[C@@H](O)C[C@@H](O)[C@H](O)CC[C@@H](O)C[C@@H](O)CC(=O)O[C@@H](C)[C@H](C)[C@H](O)[C@@H](C)/C=C/C=C/C=C/C=C/C=C/C=C/C=C/[C@H](O[C@@H]5O[C@H](C)[C@@H](O)[C@H](N)[C@@H]5O)C[C@@H]3O4)[C@@H]2O)C[C@@H]2O[C@](O)(C[C@@H](O)C[C@@H](O)[C@H](O)CC[C@@H](O)C[C@@H](O)CC(=O)O[C@H]1C)C[C@H](O)[C@H]2C(=O)O[13CH3]`, the selectivity ratio in data set [2] stood at 6. The Activity in data set [3] was determined as 50 µg. In data set [4], this molecule showed an EC50 of 13 µM.
Consider `COC(=O)[C@H]1[C@@H]2C[C@@H](O[C@@H]3O[C@H](C)[C@@H](O)[C@H](N)[C@@H]3O)/C=C/C=C/C=C/C=C/C=C/C=C/C=C/[C@H](C)[C@@H](O)[C@@H](C)[C@H](C)OC(=O)C[C@H](O)C[C@H](O)CC[C@@H](O)[C@H](O)C[C@H](O)C[C@](O)(C[C@@H]1O)O2` [AMPHOTERICIN B ME ESTER], for which the outcome in data set [5] was Active.
Turning to `C[C@@H]1[C@H](O)[C@@H](C)/C=C/C=C/C=C/C=C/C=C/C=C/C=C/[C@H](O[C@@H]2O[C@H](C)[C@@H](O)[C@H](N)[C@@H]2O)C[C@@H]2O[C@](O)(C[C@@H](O)C[C@@H](O)[C@H](O)CC[C@@H](O)C[C@@H](O)CC(=O)O[C@H]1C)C[C@H](O)[C@H]2C(=O)O` [AMPHOTERICIN B], the Activity is 10 µg in data set [3] and “Active” in data set [6]. Moreover, the response in data set [4] was half-maximal at 2 µM (EC50).

Source of the values: ChEMBL document CHEMBL2146389, “Possible conformation of amphotericin B dimer in membrane-bound assembly as deduced from solid-state NMR” (Bioorg Med Chem, 2012).
